{"source": "patent US8506950B2", "about": "“Degradable microcapsules” (ETH Zurich, priority 2008, dated 2013)", "type_in_all_cases": "cell-based", "key": {"[1]": {"target": "T1, rat luteinizing hormone receptor (rLHR) (Rattus norvegicus, UniProt P16235)", "T1 construct": "Full-length cDNAs encoding the LHRs of rat (r) and bovine (b) origin; expressed in transfected cells; host or cells: HEK293T, transient transfection with pLEN-rLHR", "T1 sequence (P16235 27-700)": "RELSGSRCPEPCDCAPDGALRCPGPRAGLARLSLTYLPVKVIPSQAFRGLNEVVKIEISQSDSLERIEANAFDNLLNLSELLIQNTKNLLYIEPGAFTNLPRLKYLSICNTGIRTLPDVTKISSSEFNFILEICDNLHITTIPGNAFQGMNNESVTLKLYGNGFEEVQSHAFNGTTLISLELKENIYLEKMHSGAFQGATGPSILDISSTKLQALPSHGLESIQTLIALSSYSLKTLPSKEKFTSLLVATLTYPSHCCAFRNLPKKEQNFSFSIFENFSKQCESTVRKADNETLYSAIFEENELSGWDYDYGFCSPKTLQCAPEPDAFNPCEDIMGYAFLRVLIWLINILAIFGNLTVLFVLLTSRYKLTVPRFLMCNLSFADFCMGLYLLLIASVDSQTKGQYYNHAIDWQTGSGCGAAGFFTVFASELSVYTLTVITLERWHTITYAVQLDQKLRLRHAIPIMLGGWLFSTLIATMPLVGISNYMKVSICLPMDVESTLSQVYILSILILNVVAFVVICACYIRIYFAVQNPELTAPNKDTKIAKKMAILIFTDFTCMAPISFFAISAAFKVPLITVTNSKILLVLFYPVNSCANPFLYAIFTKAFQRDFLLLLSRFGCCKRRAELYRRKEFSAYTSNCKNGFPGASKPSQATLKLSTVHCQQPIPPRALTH", "test": "Intracellular cAMP in HEK293T cells transiently expressing rLHR, induced by bLH", "conditions": "500 ng/ml bLH, 1 h post-induction, rLHR expressed, vs non-induced cells", "protocol": "(§1) HEK293T cells were transiently transfected for constitutive bLHR or rLHR expression. 48 hours post-transfection the cells were induced by the addition of 500 ng/ml bLH. The intracellular cAMP-levels were determined 1 h post-induction. […] (□) no bLH, (▪) 500 ng/mL bLH.\n(§2) Full-length cDNAs encoding the LHRs of rat (r) and bovine (b) origin were cloned under control of the strong constitutive human cytomegalovirus promoter (PCMV) as previously described [Kawate N, Tamada H, Inaba T, Sawada T, Journal of Reproduction and Development 2002; 48:8; Ulaner G A, Chuang J, Lin W, Woodbury D, Myers R V, Moyle W R, J Endocrinol 1999; 163:289-97]. The expression vectors were transiently transfected into HEK293T cells. The functionality of the expressed LHRs was determined 48 hours post-transfection by assaying the intracellular cAMP increase in response to the presence of bLH (FIG. 7). […] However, when the rLHR was expressed the detected cAMP-level increased to 29-fold level of the non-induced cells. […]\n(§3) The intracellular cAMP production of cells was quantified using the cAMP Fluorescence Polarization (FP) Biotrak Immunoassay System (GE Healthcare Bio-Sciences GmbH, Otelfingen, Switzerland, Cat No. RPN3595) according to the manufacturer's protocol. The expression of firefly luciferase was determined with the Tropix Luciferase Assay Kit (Applied Biosystems, Bedford, USA, Cat No. BC100L). […]"}, "[2]": {"target": "T2, bovine luteinizing hormone receptor (bLHR) (Bos taurus, UniProt Q28005)", "T2 construct": "Full-length cDNAs encoding the LHRs of rat (r) and bovine (b) origin; expressed in transfected cells; host or cells: HEK293T, transient transfection with pcDNA3.1-bLHR", "T2 sequence (Q28005 27-701)": "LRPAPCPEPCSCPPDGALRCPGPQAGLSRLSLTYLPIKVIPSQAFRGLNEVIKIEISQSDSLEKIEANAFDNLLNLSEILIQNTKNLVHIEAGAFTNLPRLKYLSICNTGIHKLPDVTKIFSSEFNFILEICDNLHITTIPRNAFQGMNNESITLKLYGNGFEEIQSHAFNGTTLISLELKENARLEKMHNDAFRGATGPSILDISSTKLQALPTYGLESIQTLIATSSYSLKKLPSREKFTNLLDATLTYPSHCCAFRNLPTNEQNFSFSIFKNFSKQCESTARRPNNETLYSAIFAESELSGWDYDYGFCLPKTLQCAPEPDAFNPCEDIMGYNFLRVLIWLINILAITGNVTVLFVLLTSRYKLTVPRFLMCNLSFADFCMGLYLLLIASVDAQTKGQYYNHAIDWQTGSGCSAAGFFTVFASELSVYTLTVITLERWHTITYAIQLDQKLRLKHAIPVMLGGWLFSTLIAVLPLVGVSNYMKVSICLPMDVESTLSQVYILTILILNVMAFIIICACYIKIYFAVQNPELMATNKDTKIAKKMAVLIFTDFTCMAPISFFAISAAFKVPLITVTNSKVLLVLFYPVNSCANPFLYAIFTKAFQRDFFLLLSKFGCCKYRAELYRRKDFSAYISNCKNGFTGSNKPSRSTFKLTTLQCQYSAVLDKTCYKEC", "test": "Intracellular cAMP in HEK293T cells transiently expressing bLHR, induced by bLH", "conditions": "500 ng/ml bLH, 1 h post-induction, bLHR expressed, vs non-induced cells", "protocol": "as §1, §2, §3"}, "[3]": {"target": "rLHR (Rattus norvegicus, UniProt P16235)", "sequence (P16235 27-700)": "as the sequence (P16235 27-700) above", "test": "PCRE dependent SEAP expression over time in HEK293T expressing rLHR or bLHR", "parameters": "Full-length cDNAs encoding the LHRs of rat (r) and bovine (b) origin; expressed in transfected cells; host or cells: HEK293T, transient transfection with pLEN-rLHR", "conditions": "500 ng/mL bLH, maximal SEAP expression", "protocol": "HEK293T cells were transiently co-transfected for PCRE dependent SEAP expression and constitutive bLHR- or rLHR expression or with the empty vector pcDNA3.1(+). 24 hours post-transfection the cells were induced by addition of 500 ng/mL bLH or cultivated non-induced. […] (▴) rLHR+bLH; (▪) bLHR+bLH; (×) rLHR-bLH; (♦) bLHR-bLH;\nFunctional expression of LHRs on the cell surface results in the stimulation of PKA and an increase of intracellular cAMP in response to bLH. It was evaluated whether the activated LHR-signaling may induce a PKA-responsive promoter. […] 24 hours post-transfection the cells were induced by bLH and the SEAP expression was determined over time. […] In comparing rLHR- and bLHR-expressing cells a 3-fold increase in maximal SEAP expression in response to bLH of the rLHR over the bLHR was detected. […]\nThe intracellular cAMP production of cells was quantified using the cAMP Fluorescence Polarization (FP) Biotrak Immunoassay System (GE Healthcare Bio-Sciences GmbH, Otelfingen, Switzerland, Cat No. RPN3595) according to the manufacturer's protocol. The expression of firefly luciferase was determined with the Tropix Luciferase Assay Kit (Applied Biosystems, Bedford, USA, Cat No. BC100L). […] Enhanced YFP-expression was detected by fluorescence microscopy (Leica Microsystems, Wetzlar, Germany)"}}, "data": [{"substance": "bovine luteinizing hormone [bLH]", "values": [{"measurement": "increase in intracellular cAMP", "setting": "[1]", "result": 29, "unit": "fold"}, {"measurement": "increase in intracellular cAMP", "setting": "[2]", "result": 12, "unit": "fold"}, {"measurement": "SEAP production of rLHR-expressing cells relative to bLHR-expressing cells", "setting": "[3]", "result": 3, "unit": "fold"}]}]}
